Some results are limits rather than exact numbers.

IC50 data for 29 compounds are collected here from US8134015B2, “Compound inhibiting in vivo phosphorous transport and medicine containing the same” (Kyowa Hakko Kirin Co., Ltd., priority 2003, dated 2012).

In the assay the target is T1, rat NaPi-2b (Rattus norvegicus, UniProt Q9JJ09).
T1 construct: expressed in transfected cells; host or cells: Xenopus oocytes injected with cRNA
T1 sequence (Q9JJ09 1-695): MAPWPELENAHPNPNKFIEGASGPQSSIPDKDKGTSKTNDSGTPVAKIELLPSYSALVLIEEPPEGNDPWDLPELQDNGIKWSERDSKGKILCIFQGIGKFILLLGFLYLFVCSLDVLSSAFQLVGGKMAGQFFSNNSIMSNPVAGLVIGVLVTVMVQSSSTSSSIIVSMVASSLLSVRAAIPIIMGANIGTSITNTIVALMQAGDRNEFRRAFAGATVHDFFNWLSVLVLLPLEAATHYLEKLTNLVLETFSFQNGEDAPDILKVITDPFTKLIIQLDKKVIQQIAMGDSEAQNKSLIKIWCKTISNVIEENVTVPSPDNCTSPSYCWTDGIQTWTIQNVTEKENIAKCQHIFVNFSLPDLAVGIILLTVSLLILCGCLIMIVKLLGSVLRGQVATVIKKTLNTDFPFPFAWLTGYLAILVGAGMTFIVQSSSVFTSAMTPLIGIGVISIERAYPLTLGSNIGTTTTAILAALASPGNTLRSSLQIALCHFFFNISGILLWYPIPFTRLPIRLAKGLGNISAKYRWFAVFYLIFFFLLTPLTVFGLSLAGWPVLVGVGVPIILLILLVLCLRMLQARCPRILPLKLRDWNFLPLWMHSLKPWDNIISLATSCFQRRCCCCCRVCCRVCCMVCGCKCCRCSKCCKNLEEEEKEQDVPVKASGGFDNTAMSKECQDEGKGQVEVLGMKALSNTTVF
Description: Sodium-dependent phosphate uptake of Xenopus oocytes which expressed NaPi-2b (32P). It is filed as cell-based. The following applies: Xenopus oocytes expressing rat NaPi-2b, 32P radioactive phosphorus; read-out: IC50 (phosphate uptake inhibitory activity). The essentials: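 Inhibition at 300 μM and 100 μM was read off one inhibition curve of 32P phosphate uptake. Uptake was measured in Xenopus oocytes cultured 2 days after injection of cRNA for cloned rat NaPi-2b.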

One may read the IC50 as the point on the concentration scale where inhibition reaches its midpoint. In the case of `CCN(CC)CCN(C)Cc1cccc(C(=O)Nc2ccc(I)cc2C(=O)N/N=C/c2cccc(OC)c2)c1` [Compound 478, 3-{[(2-Diethylamino-ethyl)-methyl-amino]-methyl}-N-[4-iodo-2-(3-methoxy-benzylidene-hydrazinocarbonyl)-phenyl]-benzamide], the IC50 is < 3 µM. Then `CCN(CC)CCN(C)Cc1cccc(C(=O)Nc2ccc(I)cc2C(=O)N/N=C/c2ccc(OC)cc2)c1` [Compound 479, 3-{[(2-Diethylamino-ethyl)-methyl-amino]-methyl}-N-[4-iodo-2-(4-methoxy-benzylidene-hydrazinocarbonyl)-phenyl]-benzamide], with < 3 µM; and `CCN(CC)CCN(C)Cc1cccc(C(=O)Nc2ccc(I)cc2C(=O)N/N=C/c2cccc(O)c2)c1` [Compound 480, 3-{[(2-Diethylamino-ethyl)-methyl-amino]-methyl}-N-[2-(3-hydroxy-benzylidene-hydrazinocarbonyl)-4-iodo-phenyl]-benzamide], with < 3 µM; and `CCN(CC)CCN(C)Cc1cccc(C(=O)Nc2ccc(I)cc2C(=O)N/N=C/c2ccc(O)cc2)c1` [Compound 481, 3-{[(2-Diethylamino-ethyl)-methyl-amino]-methyl}-N-[2-(4-hydroxy-benzylidene-hydrazinocarbonyl)-4-iodo-phenyl]-benzamide], with 12.1 µM. As for `O=C(Nc1ccc(I)cc1C(=O)N/N=C/c1cccc(F)c1)c1cccc(CN2CCC(N3CCCCC3)CC2)c1` [Compound 482, 3-[1,4′]Bipiperidinyl-1′-ylmethyl-N-[2-(3-fluoro-benzylidene-hydrazinocarbonyl)-4-iodo-phenyl]-benzamide], the figure is < 3 µM; as for `O=C(Nc1ccc(I)cc1C(=O)N/N=C/c1ccc(F)cc1)c1cccc(CN2CCC(N3CCCCC3)CC2)c1` [Compound 483, 3-[1,4′]Bipiperidinyl-1′-ylmethyl-N-[2-(4-fluoro-benzylidene-hydrazinocarbonyl)-4-iodo-phenyl]-benzamide], < 3 µM. As for `Cc1cccc(/C=N/NC(=O)c2cc(I)ccc2NC(=O)c2cccc(CN3CCC(N4CCCCC4)CC3)c2)c1` [Compound 484, 3-[1,4′]Bipiperidinyl-1′-ylmethyl-N-[4-iodo-2-(3-methyl-benzylidene-hydrazinocarbonyl)-phenyl]-benzamide], the figure is < 3 µM. Turning to `Cc1ccc(/C=N/NC(=O)c2cc(I)ccc2NC(=O)c2cccc(CN3CCC(N4CCCCC4)CC3)c2)cc1` [Compound 485, 3-[1,4′]Bipiperidinyl-1′-ylmethyl-N-[4-iodo-2-(4-methyl-benzylidene-hydrazinocarbonyl)-phenyl]-benzamide], the half-inhibitory concentration (IC50) was < 3 µM. Then `Cc1ccc(/C=N/NC(=O)c2cc(I)ccc2NC(=O)c2cccc(CN3CCC(N4CCCCC4)CC3)c2)cc1C` [Compound 486, 3-[1,4′]Bipiperidinyl-1′-ylmethyl-N-[2-(3,4-dimethyl-benzylidene-hydrazinocarbonyl)-4-iodo-phenyl]-benzamide], with < 3 µM. On to `O=C(Nc1ccc(I)cc1C(=O)N/N=C/c1ccc(Cl)c(C(F)(F)F)c1)c1cccc(CN2CCC(N3CCCCC3)CC2)c1` [Compound 487, 3-[1,4′]Bipiperidinyl-1′-ylmethyl-N-[2-(4-chloro-3-trifluoromethyl-benzylidene-hydrazinocarbonyl)-4-iodo-phenyl]-benzamide], for which the IC50 is < 3 µM. Take `COc1cccc(/C=N/NC(=O)c2cc(I)ccc2NC(=O)c2cccc(CN3CCC(N4CCCCC4)CC3)c2)c1` [Compound 488, 3-[1,4′]Bipiperidinyl-1′-ylmethyl-N-[4-iodo-2-(3-methoxy-benzylidene-hydrazinocarbonyl)-phenyl]-benzamide]: the IC50 was < 3 µM.

On to `COc1ccc(/C=N/NC(=O)c2cc(I)ccc2NC(=O)c2cccc(CN3CCC(N4CCCCC4)CC3)c2)cc1` [Compound 489, 3-[1,4′]Bipiperidinyl-1′-ylmethyl-N-[4-iodo-2-(4-methoxy-benzylidene-hydrazinocarbonyl)-phenyl]-benzamide], for which the concentration for half-maximal inhibition (IC50) was < 3 µM. As for `O=C(Nc1ccc(I)cc1C(=O)N/N=C/c1cccc(O)c1)c1cccc(CN2CCC(N3CCCCC3)CC2)c1` [Compound 490, 3-[1,4′]Bipiperidinyl-1′-ylmethyl-N-[2-(3-hydroxy-benzylidene-hydrazinocarbonyl)-4-iodo-phenyl]-benzamide], the figure is < 3 µM. As for `O=C(Nc1ccc(I)cc1C(=O)N/N=C/c1ccc(O)cc1)c1cccc(CN2CCC(N3CCCCC3)CC2)c1` [Compound 491, 3-[1,4′]Bipiperidinyl-1′-ylmethyl-N-[2-(4-hydroxy-benzylidene-hydrazinocarbonyl)-4-iodo-phenyl]-benzamide], the figure is < 3 µM; as for `Cc1ccc(CNNC(=O)c2cc(Cl)ccc2NC(=O)c2cccc(CSCCO)c2)cc1C` [Compound 492, N-{4-Chloro-2-[N′-(3,4-dimethyl-benzyl)-hydrazinocarbonyl]-phenyl}-3-(2-hydroxy-ethylsulfanylmethyl)-benzamide], < 3 µM; as for `Cc1ccc(C=NNC(=O)c2cc(Cl)ccc2NC(=O)c2cccc(CS(=O)(=O)CCO)c2)cc1C` [Compound 493, N-[4-Chloro-2-(3,4-dimethyl-benzylidene-hydrazinocarbonyl)-phenyl]-3-(2-hydroxy-ethanesulfonylmethyl)-benzamide], < 3 µM. As for `Cc1ccc(/C=N/NC(=O)c2cc(Br)ccc2NC(=O)c2ccc(C)cc2)cc1` [Compound 494, N-[4-Bromo-2-(4-methyl-benzylidene-hydrazinocarbonyl)-phenyl]-4-methyl-benzamide], the figure is 2.07 µM. Consider `O=C(Nc1ccc(Br)cc1C(=O)N/N=C/c1cccc(F)c1)c1ccccn1` [Compound 495, Pyridin-2-carboxylic acid[4-bromo-2-(3-fluoro-benzylidene-hydrazinocarbonyl)-phenyl]-amide], for which the 50% inhibitory concentration (IC50) stood at 0.35 µM.

Consider `O=C(Nc1ccc(Br)cc1C(=O)N/N=C/c1ccc(F)cc1)c1ccccn1` [Compound 496, Pyridin-2-carboxylic acid [4-bromo-2-(4-fluoro-benzylidene-hydrazinocarbonyl)-phenyl]-amide], for which the 50% inhibitory concentration (IC50) was determined as 0.64 µM. Turning to `Cc1cccc(/C=N/NC(=O)c2cc(Br)ccc2NC(=O)c2ccccn2)c1` [Compound 497, Pyridin-2-carboxylic acid [4-bromo-2-(3-methyl-benzylidene-hydrazinocarbonyl)-phenyl]-amide], the IC50 was 0.51 µM. Then `Cc1ccc(/C=N/NC(=O)c2cc(Br)ccc2NC(=O)c2ccccn2)cc1` [Compound 498, Pyridin-2-carboxylic acid [4-bromo-2-(4-methyl-benzylidene-hydrazinocarbonyl)-phenyl]-amide], with 0.6 µM; and `Cc1ccc(/C=N/NC(=O)c2cc(Br)ccc2NC(=O)c2ccccn2)cc1C` [Compound 499, Pyridin-2-carboxylic acid [4-bromo-2-(3,4-dimethyl-benzylidene-hydrazinocarbonyl)-phenyl]-amide], with 0.98 µM. Then `O=C(Nc1ccc(Br)cc1C(=O)N/N=C/c1ccc(Cl)c(C(F)(F)F)c1)c1ccccn1` [Compound 500, Pyridin-2-carboxylic acid [4-bromo-2-(4-chloro-3-trifluoromethyl-benzylidene-hydrazinocarbonyl)-phenyl]-amide], with 0.35 µM; and `CCOc1ccc(C(=O)Nc2ccc(Br)cc2C(=O)N/N=C/c2cccc(F)c2)cc1` [Compound 501, N-[4-Bromo-2-(3-fluoro-benzylidene-hydrazinocarbonyl)-phenyl]-4-ethoxy-benzamide], with 23.1 µM; and `CCOc1ccc(C(=O)Nc2ccc(Br)cc2C(=O)N/N=C/c2ccc(F)cc2)cc1` [Compound 502, N-[4-Bromo-2-(4-fluoro-benzylidene-hydrazinocarbonyl)-phenyl]-4-ethoxy-benzamide], with 15.7 µM. As for `CCOc1ccc(C(=O)Nc2ccc(Br)cc2C(=O)N/N=C/c2ccc(C)cc2)cc1` [Compound 503, N-[4-Bromo-2-(4-methyl-benzylidene-hydrazinocarbonyl)-phenyl]-4-ethoxy-benzamide], the figure is 10.3 µM; as for `CCOc1ccc(C(=O)Nc2ccc(Br)cc2C(=O)N/N=C/c2ccc(C)c(C)c2)cc1` [Compound 504, N-[4-Bromo-2-(3,4-dimethyl-benzylidene-hydrazinocarbonyl)-phenyl]-4-ethoxy-benzamide], 18.9 µM.

Turning to `O=C(Nc1ccccc1C(=O)N/N=C/c1cccc(F)c1)c1ccccn1` [Compound 505, Pyridin-2-carboxylic acid [2-(3-fluoro-benzylidene-hydrazinocarbonyl)-phenyl]-amide], the 50% inhibitory concentration (IC50) was found to be 1.21 µM. As for `O=C(Nc1ccccc1C(=O)N/N=C/c1ccc(F)cc1)c1ccccn1` [Compound 506, Pyridin-2-carboxylic acid [2-(4-fluoro-benzylidene-hydrazinocarbonyl)-phenyl]-amide], the figure is 19.5 µM.
